Assay results as given in patent publication US12594267B2, “Capsid inhibitors for the treatment of HIV” (Gilead Sciences, Inc., priority 2018, dated 2026).
Where two headings read alike, the source gives them in different places.

Columns and labels:
HIV-1 clinical isolates = assay: Antiviral activity against HIV-1 clinical isolates in PHA-stimulated human PBMCs; type: cell-based; details: Human immunodeficiency virus 1, PBMC
Procedure: The antiretroviral activity of the compound of Formula (Ia) was tested against a panel of 22 HIV-1 clinical isolates of HIV-1 and two HIV-2 isolates in freshly isolated, PHA-stimulated human peripheral blood mononuclear cells (PBMCs). The HIV-1 isolates included representative strains from subtypes A, B, C, D, E, F, G, N, O, AE, and AG. Following a 7-day infection, virus production was determined by measuring reverse transcriptase activity in cell-free culture supernatants.

NNRTI-resistant viruses = assay: Cytopathic antiviral assay in MT-2 cells, NNRTI-resistant viruses; type: cell-based, HIV-1; details: for EC50 Fold-Change: Mutant/WT (HXB2D) EC50 ratio, mean ± s.d. of three experiments
Procedure: The antiviral activity of the compound of Formula (a) was tested against a panel of known HIV-1 mutants resistant to HIV PIs (ATV and DRV), NRTIs (TFV and FTC), NNRTIs (RPV and EFV) or INSTIs (RAL, EVG and DTG) using a cytopathic antiviral assay in MT-2 cells. The compound of Formula (Ia) was fully active against all tested mutants resistant to PIs (Table 11), NRTIs (Table 12), NNRTIs (Table 13) or INSTIs (Table 14).

[1] = Plasma PK after single oral administration in solution, summary over the four species; type: in vivo; details: male, Sprague-Dawley (rat), beagle (dog), range of species means (rat, dog, cynomolgus monkey, rhesus monkey)
Procedure: (§1) An oral formulation containing a compound of Formula (Ia) in […], 20% propylene glycol, 45 PEG 300, and 30% 0.01 N HCl was prepared. The formulation was orally administered to male rat, dog, cynomolgus monkey, and rhesus monkey according to the doses shown in Table 8 below.

[2] = Plasma PK after single oral administration in solution, dog; type: in vivo, Beagle Dog
Procedure: as §1

[3] = male, beagle, plasma, dog, single oral 4.0 mg/kg, solution in 5% ethanol/20% propylene glycol/45% PEG 300/30% 0.01 N HCl, mean ± SD, n=3

## CC(C)(C#Cc1ccc(-c2ccc(Cl)c3c(NS(C)(=O)=O)nn(CC(F)(F)F)c23)c([C@H](Cc2cc(F)cc(F)c2)NC(=O)Cn2nc(C(F)(F)F)c3c2C(F)(F)[C@@H]2C[C@H]32)n1)S(C)(=O)=O [Formula (Ia), N—((S)-1-(3-(4-chloro-3-(methylsulfonamido)-1-(2,2,2-trifluoroethyl)-1H-indazol-7-yl)-6-(3-methyl-3-(methylsulfonyl)but-1-yn-1-yl)pyridin-2-yl)-2-(3,5-difluorophenyl)ethyl)-2-((3bS,4aR)-5,5-difluoro-3-(trifluoromethyl)-3b,4,4a,5-tetrahydro-1H-cyclopropa[3,4]cyclopenta[1,2-c]pyrazol-1-yl)acetamide]
HIV-1 clinical isolates; 168 h, read-out: EC50 in human PBMCs, HIV-1 CRF02_AG isolate 01CM0008BBY, 7-day infection, RT activity readout, mean of triplicate
  EC50: 0.05 nM
HIV-1 clinical isolates; 168 h, read-out: EC50 in human PBMCs, HIV-1 CRF02_AG isolate 91DJ263, 7-day infection, RT activity readout, mean of triplicate
  EC50: 0.04 nM
HIV-1 clinical isolates; 168 h, read-out: EC50 in human PBMCs, HIV-1 Group N isolate YBF30, 7-day infection, RT activity readout, mean of triplicate
  EC50: 0.02 nM
HIV-1 clinical isolates; 168 h, read-out: EC50 in human PBMCs, HIV-1 Group O isolate BCF01, 7-day infection, RT activity readout, mean of triplicate
  EC50: 0.04 nM
HIV-1 clinical isolates; 168 h, read-out: EC50 in human PBMCs, HIV-1 subtype A isolate 92UG031, 7-day infection, RT activity readout, mean of triplicate
  EC50: 0.04 nM
HIV-1 clinical isolates; 168 h, read-out: EC50 in human PBMCs, HIV-1 subtype A isolate 92UG037, 7-day infection, RT activity readout, mean of triplicate
  EC50: 0.07 nM
HIV-1 clinical isolates; 168 h, read-out: EC50 in human PBMCs, HIV-1 subtype B isolate 89BZ_167, 7-day infection, RT activity readout, mean of triplicate
  EC50: 0.08 nM
HIV-1 clinical isolates; 168 h, read-out: EC50 in human PBMCs, HIV-1 subtype B isolate 90US_873, 7-day infection, RT activity readout, mean of triplicate
  EC50: 0.04 nM
HIV-1 clinical isolates; 168 h, read-out: EC50 in human PBMCs, HIV-1 subtype B isolate 91US001, 7-day infection, RT activity readout, mean of triplicate
  EC50: 0.03 nM
HIV-1 clinical isolates; 168 h, read-out: EC50 in human PBMCs, HIV-1 subtype B isolate 91US004, 7-day infection, RT activity readout, mean of triplicate
  EC50: 0.04 nM
HIV-1 clinical isolates; 168 h, read-out: EC50 in human PBMCs, HIV-1 subtype B isolate 96TH_NP1538, 7-day infection, RT activity readout, mean of triplicate
  EC50: 0.05 nM
HIV-1 clinical isolates; 168 h, read-out: EC50 in human PBMCs, HIV-1 subtype B isolate JR-CSF, 7-day infection, RT activity readout, mean of triplicate
  EC50: 0.04 nM
HIV-1 clinical isolates; 168 h, read-out: EC50 in human PBMCs, HIV-1 subtype C isolate 92BR025, 7-day infection, RT activity readout, mean of triplicate
  EC50: 0.05 nM
HIV-1 clinical isolates; 168 h, read-out: EC50 in human PBMCs, HIV-1 subtype C isolate 98US_MSC5016, 7-day infection, RT activity readout, mean of triplicate
  EC50: 0.1 nM
HIV-1 clinical isolates; 168 h, read-out: EC50 in human PBMCs, HIV-1 subtype D isolate 92UG001, 7-day infection, RT activity readout, mean of triplicate
  EC50: 0.02 nM
HIV-1 clinical isolates; 168 h, read-out: EC50 in human PBMCs, HIV-1 subtype D isolate 98UG_57128, 7-day infection, RT activity readout, mean of triplicate
  EC50: 0.03 nM
HIV-1 clinical isolates; 168 h, read-out: EC50 in human PBMCs, HIV-1 subtype E isolate CMU02, 7-day infection, RT activity readout, mean of triplicate
  EC50: 0.05 nM
HIV-1 clinical isolates; 168 h, read-out: EC50 in human PBMCs, HIV-1 subtype E isolate CMU08, 7-day infection, RT activity readout, mean of triplicate
  EC50: 0.05 nM
HIV-1 clinical isolates; 168 h, read-out: EC50 in human PBMCs, HIV-1 subtype F isolate 93BR020, 7-day infection, RT activity readout, mean of triplicate
  EC50: 0.05 nM
HIV-1 clinical isolates; 168 h, read-out: EC50 in human PBMCs, HIV-1 subtype G isolate JV1083, 7-day infection, RT activity readout, mean of triplicate
  EC50: 0.16 nM
HIV-1 clinical isolates; read-out: HIV-1 EC50 Mean ± s.d., mean over the 22 HIV-1 clinical isolates, human PBMCs
  EC50: 0.05 ± 0.03 nM
HIV-1 clinical isolates; read-out: HIV-1 EC50 Median, median over the 22 HIV-1 clinical isolates, human PBMCs
  EC50: 0.04 nM
HIV-1 clinical isolates; read-out: HIV-1 EC50 Range, range over the 22 HIV-1 clinical isolates, human PBMCs
  EC50: 0.02 to 0.16 nM
NNRTI-resistant viruses; K103N
  EC50 Fold-Change: 0.3 ± 0.1
NNRTI-resistant viruses; K103N/Y181C
  EC50 Fold-Change: 0.5 ± 0.2
NNRTI-resistant viruses; L100I/K103N
  EC50 Fold-Change: 0.5 ± 0.2
NNRTI-resistant viruses; Y181C
  EC50 Fold-Change: 1.6 ± 1.0
NNRTI-resistant viruses; Y188L
  EC50 Fold-Change: 0.5 ± 0.1
NNRTI-resistant viruses; mutants resistant to NNRTIs
  activity against all tested mutants, in words: fully active
[1]
  Tmax: 8.7 to 18.7 h
[2]; dogs, oral solution
  F % (bioavailability), in words: moderate
[2]; male, beagle, plasma, dog, single oral 4.0 mg/kg, same solution, calculated based on AUC0-72h, mean ± SD, n=3, read-out: F (oral bioavailability)
  bioavailability: 22.1 ± 8.4%
[2]; [3]
  AUC(0-inf): 16500 ± 10400 µM·h
  Cmax: 471 ± 203 µM
  Tmax: 10.7 ± 11.5 h
[2]; male, beagle, plasma, dog, single oral 4.0 mg/kg, solution in 5% ethanol/20% propylene glycol/45% PEG 300/30% 0.01 N HCl, mean ± SD, n=3, read-out: AUC0-72h
  AUC(0-t): 11400 ± 4320 µM·h
